The values that follow come from ChEMBL document CHEMBL1201862, “PubChem BioAssay data set” (2004).

Among the test systems are MOLT-4; ACHN; M14; CCRF-CEM; K562; SNB-19; MCF7; EKVX; SK-MEL-5; LXFL 529; OVCAR-3; BT-549; HOP-92; SR; MDA-MB-231; DU-145; HT-29; A549; T47D; SF-268.
Holding throughout (experiment): DTP human tumour cell line panel, 48 h

For orientation: GI50 means the concentration that inhibits growth by half.

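A five-concentration, 48-hour dose response in 96-well plates underlies each endpoint, interpolated linearly between surrounding concentrations. Here, GI50 denotes the concentration required for 50% inhibition of growth.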 The source made the active and inactive calls. No stated cut-off is given here; in the data, active = GI50 up to about 1.1 µM and inactive = higher.

Regarding `CC1CSC(=S)N1C(=O)N1C(=S)SCC1C` (stereo not given), the GI50 in the test with MOLT-4 is 23.6 µM (inactive); in the test on ACHN, 18.5 µM (inactive); in the test on M14, 21.9 µM (inactive); with CCRF-CEM, 8.73 µM (inactive); in the test with K562, 20.1 µM (inactive); in the test on SNB-19 it was 63.8 µM (inactive). Moreover, the GI50 with MCF7 was 21.2 µM (inactive); with EKVX it was 28.8 µM (inactive); with SK-MEL-5 it was 17 µM (inactive); with LXFL 529, 33.4 µM (inactive); in the test with OVCAR-3, 27.4 µM (inactive); with BT-549 it was 24.7 µM (inactive). Further, the GI50 is 27.7 µM (inactive) with HOP-92; 12.5 µM (inactive) in the test on SR; 22.2 µM (inactive) in the test on MDA-MB-231; 19.5 µM (inactive) in the test with DU-145; 27.4 µM (inactive) in the test with HT-29; 35.6 µM (inactive) in the test on A549. Also, the GI50 in the test on T47D is 28.6 µM (inactive); in the test with SF-268, 26.3 µM (inactive).

Consider `CC1=CC(=O)c2cccc(O)c2C1=O`, for which the GI50 was 0.473 µM (active) in the test on MOLT-4; 1.78 µM (inactive) in the test with ACHN; 1.81 µM (inactive) in the test on M14; 1.91 µM (inactive) with CCRF-CEM; 3.02 µM (inactive) in the test with K562; 8.07 µM (inactive) in the test with SNB-19. Moreover, the GI50 with MCF7 is 1.99 µM (inactive); in the test on EKVX, 4.29 µM (inactive); with SK-MEL-5, 1.79 µM (inactive); with LXFL 529, 1.67 µM (inactive); with OVCAR-3, 1.53 µM (inactive); with BT-549, 1.75 µM (inactive). For the same molecule, the GI50 was 1.85 µM (inactive) with HOP-92; 1.8 µM (inactive) in the test on SR; 1.76 µM (inactive) in the test with MDA-MB-231; 8.05 µM (inactive) with DU-145; 4.27 µM (inactive) with HT-29; 14.9 µM (inactive) in the test with A549. In addition, the values for the GI50 in the test with T47D and in the test on SF-268 were 1.77 µM (inactive) and 6.76 µM (inactive), respectively.

As to `COc1ccc(C2=NOP(c3ccccc3)(c3ccccc3)(c3ccccc3)C2)cc1`, the GI50 in the test with MOLT-4 is 7.43 µM (inactive); in the test on ACHN, 29.3 µM (inactive); in the test with M14, 10.8 µM (inactive); with CCRF-CEM, 7.98 µM (inactive); in the test on K562, 4.25 µM (inactive); with SNB-19 it was 51.4 µM (inactive). Besides, the GI50 in the test on EKVX is 63.1 µM (inactive); with SK-MEL-5 it was 13.3 µM (inactive); in the test on LXFL 529, 5.57 µM (inactive); in the test with OVCAR-3, 21.7 µM (inactive); in the test with HOP-92, 6.46 µM (inactive); in the test on SR, 7.46 µM (inactive). In addition, the GI50 is 1.55 µM (inactive) with HT-29, 22.5 µM (inactive) in the test on A549 and 40.4 µM (inactive) in the test on SF-268.

Regarding `C#CCNC(=O)NC(CCCNC(=O)OCc1ccccc1)C(=O)OCc1ccccc1` (stereo not given), the GI50 in the test with MOLT-4 was > 100 µM (inactive); in the test on ACHN, > 100 µM (inactive); with M14 it was 24.5 µM (inactive); with CCRF-CEM it was > 100 µM (inactive); in the test with K562 it was > 100 µM (inactive); with SNB-19, > 100 µM (inactive). The GI50 is > 100 µM (inactive) in the test with EKVX; 84.1 µM (inactive) with SK-MEL-5; > 100 µM (inactive) with LXFL 529; > 100 µM (inactive) in the test on OVCAR-3; 19.3 µM (inactive) in the test with HOP-92; > 100 µM (inactive) with SR. In addition, the GI50 in the test with HT-29, in the test on A549 and in the test on SF-268 was > 100 µM (inactive) in each case.
